Reference: ChEMBL document CHEMBL4831520, “Discovery of First-in-Class Dual PARP and EZH2 Inhibitors for Triple-Negative Breast Cancer with Wild-Type BRCA” (J Med Chem, 2021)

Target: T1, Histone-lysine N-methyltransferase EZH2 (Homo sapiens, UniProt Q15910)
Test: not given
Conditions: not given
Target sequence in this assay (Q15910 whole entry): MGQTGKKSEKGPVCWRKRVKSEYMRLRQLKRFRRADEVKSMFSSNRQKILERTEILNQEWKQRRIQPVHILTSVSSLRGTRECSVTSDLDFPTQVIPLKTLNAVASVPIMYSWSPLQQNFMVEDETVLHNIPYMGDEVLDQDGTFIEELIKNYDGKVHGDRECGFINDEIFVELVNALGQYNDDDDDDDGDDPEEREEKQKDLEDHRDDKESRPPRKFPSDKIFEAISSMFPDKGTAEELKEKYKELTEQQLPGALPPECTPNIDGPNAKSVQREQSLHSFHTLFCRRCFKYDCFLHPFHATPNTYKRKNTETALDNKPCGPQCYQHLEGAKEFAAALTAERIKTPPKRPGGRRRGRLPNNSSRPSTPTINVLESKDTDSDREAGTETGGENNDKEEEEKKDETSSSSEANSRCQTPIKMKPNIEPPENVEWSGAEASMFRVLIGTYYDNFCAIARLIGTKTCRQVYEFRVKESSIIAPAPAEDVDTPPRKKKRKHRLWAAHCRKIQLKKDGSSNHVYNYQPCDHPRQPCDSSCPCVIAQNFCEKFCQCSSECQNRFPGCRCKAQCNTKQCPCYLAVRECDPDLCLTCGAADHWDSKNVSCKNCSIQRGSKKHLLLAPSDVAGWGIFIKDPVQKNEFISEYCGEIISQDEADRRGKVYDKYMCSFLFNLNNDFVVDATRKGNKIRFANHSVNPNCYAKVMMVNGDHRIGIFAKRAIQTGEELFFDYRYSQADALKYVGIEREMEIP

Kd	Compound
0.09155 s⁻¹	CCC(=O)Nc1cc(-c2ccc(N3CCN(C(=O)c4cc(Cc5n[nH]c(=O)c6ccccc56)ccc4F)CC3)nc2)cc(C(=O)NCc2c(C)cc(C)[nH]c2=O)c1C
0.04302 s⁻¹	C=C(C)C(=O)N(CC)c1cc(-c2ccc(N3CCN(C(=O)c4cc(Cc5n[nH]c(=O)c6ccccc56)ccc4F)CC3)nc2)cc(C(=O)NCc2c(C)cc(C)[nH]c2=O)c1C
0.1116 s⁻¹	Cc1cc(C)c(CNC(=O)c2cc(-c3ccc(N4CCN(C(=O)c5cc(Cc6n[nH]c(=O)c7ccccc67)ccc5F)CC4)nc3)cc(NC(=O)CC(C)C)c2C)c(=O)[nH]1
0.01586 s⁻¹	CC(=O)Nc1cc(-c2ccc(N3CCN(C(=O)c4cc(Cc5n[nH]c(=O)c6ccccc56)ccc4F)CC3)nc2)cc(C(=O)NCc2c(C)cc(C)[nH]c2=O)c1C
0.06934 s⁻¹	CC[C@H](C)n1nc(C)c2c(C(=O)NCc3c(C)cc(C)[nH]c3=O)cc(-c3ccc(N4CCNCC4)nc3)cc21
0.02027 s⁻¹	CCC(=O)N(CC)c1cc(-c2ccc(N3CCN(C(=O)c4cc(Cc5n[nH]c(=O)c6ccccc56)ccc4F)CC3)nc2)cc(C(=O)NCc2c(C)cc(C)[nH]c2=O)c1C

Test system: MCF7
Test: cells
Assay type: functional, cell-based
Conditions: Homo sapiens, MCF7, 72 h
Description: Antiproliferative activity against human MCF7 cells assessed as cell viability after 72 hrs by MTT assay

IC50	Compound
> 50 µM	CCNc1cc(-c2ccc(N3CCN(C(=O)c4cc(Cc5n[nH]c(=O)c6ccccc56)ccc4F)CC3)nc2)cc(C(=O)NCc2c(C)cc(C)[nH]c2=O)c1C
33.2 µM	CCCC(=O)Nc1cc(-c2ccc(N3CCN(C(=O)c4cc(Cc5n[nH]c(=O)c6ccccc56)ccc4F)CC3)nc2)cc(C(=O)NCc2c(C)cc(C)[nH]c2=O)c1C
17.7 µM	CCC(=O)Nc1cc(-c2ccc(N3CCN(C(=O)c4cc(Cc5n[nH]c(=O)c6ccccc56)ccc4F)CC3)nc2)cc(C(=O)NCc2c(C)cc(C)[nH]c2=O)c1C
21.2 µM	C=C(C)C(=O)N(CC)c1cc(-c2ccc(N3CCN(C(=O)c4cc(Cc5n[nH]c(=O)c6ccccc56)ccc4F)CC3)nc2)cc(C(=O)NCc2c(C)cc(C)[nH]c2=O)c1C
20 µM	Cc1cc(C)c(CNC(=O)c2cc(-c3ccc(N4CCN(C(=O)c5cc(Cc6n[nH]c(=O)c7ccccc67)ccc5F)CC4)nc3)cc(NC(=O)CC(C)C)c2C)c(=O)[nH]1
12.1 µM	CC(=O)Nc1cc(-c2ccc(N3CCN(C(=O)c4cc(Cc5n[nH]c(=O)c6ccccc56)ccc4F)CC3)nc2)cc(C(=O)NCc2c(C)cc(C)[nH]c2=O)c1C
19.5 µM	CC[C@H](C)n1nc(C)c2c(C(=O)NCc3c(C)cc(C)[nH]c3=O)cc(-c3ccc(N4CCNCC4)nc3)cc21
18.2 µM	CCC(=O)N(CC)c1cc(-c2ccc(N3CCN(C(=O)c4cc(Cc5n[nH]c(=O)c6ccccc56)ccc4F)CC3)nc2)cc(C(=O)NCc2c(C)cc(C)[nH]c2=O)c1C

Target: T1, Histone-lysine N-methyltransferase EZH2
Test: not given
Conditions: not given
Remark: another data set of the same source
Target sequence in this assay (Q15910 whole entry): as above

IC50	Compound
0.0365 µM	CC(=O)Nc1cc(-c2ccc(N3CCN(C(=O)c4cc(Cc5n[nH]c(=O)c6ccccc56)ccc4F)CC3)nc2)cc(C(=O)NCc2c(C)cc(C)[nH]c2=O)c1C
0.0108 µM	CC[C@H](C)n1nc(C)c2c(C(=O)NCc3c(C)cc(C)[nH]c3=O)cc(-c3ccc(N4CCNCC4)nc3)cc21

Target: T1, Histone-lysine N-methyltransferase EZH2
Test: not given
Conditions: time 3.0 hrs
Target sequence in this assay (Q15910 whole entry, looked up): as the sequence (Q15910 whole entry) above

Ka	Compound
4.98 10^6/M/s	CCC(=O)Nc1cc(-c2ccc(N3CCN(C(=O)c4cc(Cc5n[nH]c(=O)c6ccccc56)ccc4F)CC3)nc2)cc(C(=O)NCc2c(C)cc(C)[nH]c2=O)c1C
1.11 10^6/M/s	C=C(C)C(=O)N(CC)c1cc(-c2ccc(N3CCN(C(=O)c4cc(Cc5n[nH]c(=O)c6ccccc56)ccc4F)CC3)nc2)cc(C(=O)NCc2c(C)cc(C)[nH]c2=O)c1C
4.54 10^6/M/s	Cc1cc(C)c(CNC(=O)c2cc(-c3ccc(N4CCN(C(=O)c5cc(Cc6n[nH]c(=O)c7ccccc67)ccc5F)CC4)nc3)cc(NC(=O)CC(C)C)c2C)c(=O)[nH]1
1.09 10^6/M/s	CC(=O)Nc1cc(-c2ccc(N3CCN(C(=O)c4cc(Cc5n[nH]c(=O)c6ccccc56)ccc4F)CC3)nc2)cc(C(=O)NCc2c(C)cc(C)[nH]c2=O)c1C
3.23 10^6/M/s	CC[C@H](C)n1nc(C)c2c(C(=O)NCc3c(C)cc(C)[nH]c3=O)cc(-c3ccc(N4CCNCC4)nc3)cc21
6.39 10^5/M/s	CCC(=O)N(CC)c1cc(-c2ccc(N3CCN(C(=O)c4cc(Cc5n[nH]c(=O)c6ccccc56)ccc4F)CC3)nc2)cc(C(=O)NCc2c(C)cc(C)[nH]c2=O)c1C

Test system: MCF-10A
Test: cells
Assay type: ADME, cell-based
Conditions: Homo sapiens, 72 h
Description: Antiproliferative activity against human MCF-10A cells assessed as cell viability after 72 hrs by MTT assay

Compound	IC50
CCNc1cc(-c2ccc(N3CCN(C(=O)c4cc(Cc5n[nH]c(=O)c6ccccc56)ccc4F)CC3)nc2)cc(C(=O)NCc2c(C)cc(C)[nH]c2=O)c1C	> 50 µM
CCCC(=O)Nc1cc(-c2ccc(N3CCN(C(=O)c4cc(Cc5n[nH]c(=O)c6ccccc56)ccc4F)CC3)nc2)cc(C(=O)NCc2c(C)cc(C)[nH]c2=O)c1C	> 50 µM
CCC(=O)Nc1cc(-c2ccc(N3CCN(C(=O)c4cc(Cc5n[nH]c(=O)c6ccccc56)ccc4F)CC3)nc2)cc(C(=O)NCc2c(C)cc(C)[nH]c2=O)c1C	> 50 µM
C=C(C)C(=O)N(CC)c1cc(-c2ccc(N3CCN(C(=O)c4cc(Cc5n[nH]c(=O)c6ccccc56)ccc4F)CC3)nc2)cc(C(=O)NCc2c(C)cc(C)[nH]c2=O)c1C	> 50 µM
Cc1cc(C)c(CNC(=O)c2cc(-c3ccc(N4CCN(C(=O)c5cc(Cc6n[nH]c(=O)c7ccccc67)ccc5F)CC4)nc3)cc(NC(=O)CC(C)C)c2C)c(=O)[nH]1	> 50 µM
CC(=O)Nc1cc(-c2ccc(N3CCN(C(=O)c4cc(Cc5n[nH]c(=O)c6ccccc56)ccc4F)CC3)nc2)cc(C(=O)NCc2c(C)cc(C)[nH]c2=O)c1C	> 50 µM
CC[C@H](C)n1nc(C)c2c(C(=O)NCc3c(C)cc(C)[nH]c3=O)cc(-c3ccc(N4CCNCC4)nc3)cc21	> 50 µM
CCC(=O)N(CC)c1cc(-c2ccc(N3CCN(C(=O)c4cc(Cc5n[nH]c(=O)c6ccccc56)ccc4F)CC3)nc2)cc(C(=O)NCc2c(C)cc(C)[nH]c2=O)c1C	> 50 µM

Target: T1, Histone-lysine N-methyltransferase EZH2
Test: not given
Conditions: not given
Remark: another data set of the same source
Target sequence in this assay (Q15910 whole entry): as above

Kd	Compound
18.37 s⁻¹	CCC(=O)Nc1cc(-c2ccc(N3CCN(C(=O)c4cc(Cc5n[nH]c(=O)c6ccccc56)ccc4F)CC3)nc2)cc(C(=O)NCc2c(C)cc(C)[nH]c2=O)c1C
38.77 s⁻¹	C=C(C)C(=O)N(CC)c1cc(-c2ccc(N3CCN(C(=O)c4cc(Cc5n[nH]c(=O)c6ccccc56)ccc4F)CC3)nc2)cc(C(=O)NCc2c(C)cc(C)[nH]c2=O)c1C
25.46 s⁻¹	Cc1cc(C)c(CNC(=O)c2cc(-c3ccc(N4CCN(C(=O)c5cc(Cc6n[nH]c(=O)c7ccccc67)ccc5F)CC4)nc3)cc(NC(=O)CC(C)C)c2C)c(=O)[nH]1
14.56 s⁻¹	CC(=O)Nc1cc(-c2ccc(N3CCN(C(=O)c4cc(Cc5n[nH]c(=O)c6ccccc56)ccc4F)CC3)nc2)cc(C(=O)NCc2c(C)cc(C)[nH]c2=O)c1C
21.44 s⁻¹	CC[C@H](C)n1nc(C)c2c(C(=O)NCc3c(C)cc(C)[nH]c3=O)cc(-c3ccc(N4CCNCC4)nc3)cc21
31.74 s⁻¹	CCC(=O)N(CC)c1cc(-c2ccc(N3CCN(C(=O)c4cc(Cc5n[nH]c(=O)c6ccccc56)ccc4F)CC3)nc2)cc(C(=O)NCc2c(C)cc(C)[nH]c2=O)c1C

Test system: MDA-MB-468
Test: cells
Assay type: functional, cell-based
Conditions: Homo sapiens, MDA-MB-468, 72 h
Description: Antiproliferative activity against human MDA-MB-468 cells assessed as cell viability after 72 hrs by MTT assay

IC50	Compound
9.56 µM	CCNc1cc(-c2ccc(N3CCN(C(=O)c4cc(Cc5n[nH]c(=O)c6ccccc56)ccc4F)CC3)nc2)cc(C(=O)NCc2c(C)cc(C)[nH]c2=O)c1C
3.89 µM	CCCC(=O)Nc1cc(-c2ccc(N3CCN(C(=O)c4cc(Cc5n[nH]c(=O)c6ccccc56)ccc4F)CC3)nc2)cc(C(=O)NCc2c(C)cc(C)[nH]c2=O)c1C
0.33 µM	CCC(=O)Nc1cc(-c2ccc(N3CCN(C(=O)c4cc(Cc5n[nH]c(=O)c6ccccc56)ccc4F)CC3)nc2)cc(C(=O)NCc2c(C)cc(C)[nH]c2=O)c1C
2.78 µM	C=C(C)C(=O)N(CC)c1cc(-c2ccc(N3CCN(C(=O)c4cc(Cc5n[nH]c(=O)c6ccccc56)ccc4F)CC3)nc2)cc(C(=O)NCc2c(C)cc(C)[nH]c2=O)c1C
0.76 µM	Cc1cc(C)c(CNC(=O)c2cc(-c3ccc(N4CCN(C(=O)c5cc(Cc6n[nH]c(=O)c7ccccc67)ccc5F)CC4)nc3)cc(NC(=O)CC(C)C)c2C)c(=O)[nH]1
0.41 µM	CC(=O)Nc1cc(-c2ccc(N3CCN(C(=O)c4cc(Cc5n[nH]c(=O)c6ccccc56)ccc4F)CC3)nc2)cc(C(=O)NCc2c(C)cc(C)[nH]c2=O)c1C
9.97 µM	CC[C@H](C)n1nc(C)c2c(C(=O)NCc3c(C)cc(C)[nH]c3=O)cc(-c3ccc(N4CCNCC4)nc3)cc21
2.11 µM	CCC(=O)N(CC)c1cc(-c2ccc(N3CCN(C(=O)c4cc(Cc5n[nH]c(=O)c6ccccc56)ccc4F)CC3)nc2)cc(C(=O)NCc2c(C)cc(C)[nH]c2=O)c1C

Test system: MDA-MB-231
Test: cells
Assay type: functional, cell-based
Conditions: Homo sapiens, MDA-MB-231, 72 h
Description: Antiproliferative activity against human MDA-MB-231 cells assessed as cell viability after 72 hrs by MTT assay

IC50	Compound
32.3 µM	CCNc1cc(-c2ccc(N3CCN(C(=O)c4cc(Cc5n[nH]c(=O)c6ccccc56)ccc4F)CC3)nc2)cc(C(=O)NCc2c(C)cc(C)[nH]c2=O)c1C
26.1 µM	CCCC(=O)Nc1cc(-c2ccc(N3CCN(C(=O)c4cc(Cc5n[nH]c(=O)c6ccccc56)ccc4F)CC3)nc2)cc(C(=O)NCc2c(C)cc(C)[nH]c2=O)c1C
8.72 µM	CCC(=O)Nc1cc(-c2ccc(N3CCN(C(=O)c4cc(Cc5n[nH]c(=O)c6ccccc56)ccc4F)CC3)nc2)cc(C(=O)NCc2c(C)cc(C)[nH]c2=O)c1C
8.73 µM	C=C(C)C(=O)N(CC)c1cc(-c2ccc(N3CCN(C(=O)c4cc(Cc5n[nH]c(=O)c6ccccc56)ccc4F)CC3)nc2)cc(C(=O)NCc2c(C)cc(C)[nH]c2=O)c1C
9.42 µM	Cc1cc(C)c(CNC(=O)c2cc(-c3ccc(N4CCN(C(=O)c5cc(Cc6n[nH]c(=O)c7ccccc67)ccc5F)CC4)nc3)cc(NC(=O)CC(C)C)c2C)c(=O)[nH]1
2.63 µM	CC(=O)Nc1cc(-c2ccc(N3CCN(C(=O)c4cc(Cc5n[nH]c(=O)c6ccccc56)ccc4F)CC3)nc2)cc(C(=O)NCc2c(C)cc(C)[nH]c2=O)c1C
9.26 µM	CC[C@H](C)n1nc(C)c2c(C(=O)NCc3c(C)cc(C)[nH]c3=O)cc(-c3ccc(N4CCNCC4)nc3)cc21
2.82 µM	CCC(=O)N(CC)c1cc(-c2ccc(N3CCN(C(=O)c4cc(Cc5n[nH]c(=O)c6ccccc56)ccc4F)CC3)nc2)cc(C(=O)NCc2c(C)cc(C)[nH]c2=O)c1C
